Experimental data: PubChem BioAssay AID2060896 (Molecular Pharmacology Branch, DTP, NCI, 2025)

System: 941728-121-R-J1-PDC complex spheroid viability
Experiment: Anticancer human tumor 941728-121-R-J1-PDC patient-derived lung adenocarcinoma cell line growth inhibition [RAS]
Settings: for IC50: curve of first compound; for viability, T/C: stronger effect = lower value
Outline: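 Tumour cells grown as complex spheroids with HUVEC endothelial cells and mesenchymal stem cells, treated with RAS pathway inhibitor combinations. Each agent spans half-log steps from near clinical Cmax, or 10 microM where Cmax is unknown.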

[1] = second compound 0.000949 µM, first compound 0.0316 µM
[2] = second compound 0.000949 µM, first compound 0.1 µM
[3] = second compound 0.000949 µM, first compound 0.316 µM
[4] = second compound 0.000949 µM, first compound 1 µM
[5] = second compound 0.000949 µM, first compound 3.16 µM
[6] = second compound 0.000949 µM, first compound 10 µM
[7] = second compound 0.003 µM, first compound 0.0316 µM
[8] = second compound 0.003 µM, first compound 0.1 µM
[9] = second compound 0.003 µM, first compound 0.316 µM
[10] = second compound 0.003 µM, first compound 1 µM
[11] = second compound 0.003 µM, first compound 3.16 µM
[12] = second compound 0.003 µM, first compound 10 µM
[13] = second compound 0.00949 µM, first compound 0.0316 µM
[14] = second compound 0.00949 µM, first compound 0.1 µM
[15] = second compound 0.00949 µM, first compound 0.316 µM
[16] = second compound 0.00949 µM, first compound 1 µM
[17] = second compound 0.00949 µM, first compound 3.16 µM
[18] = second compound 0.00949 µM, first compound 10 µM
[19] = second compound 0.03 µM, first compound 0.0316 µM
[20] = second compound 0.03 µM, first compound 0.1 µM
[21] = second compound 0.03 µM, first compound 0.316 µM
[22] = second compound 0.03 µM, first compound 1 µM
[23] = second compound 0.03 µM, first compound 3.16 µM
[24] = second compound 0.03 µM, first compound 10 µM
[25] = second compound 0.0949 µM, first compound 0.0316 µM
[26] = second compound 0.0949 µM, first compound 0.1 µM
[27] = second compound 0.0949 µM, first compound 0.316 µM
[28] = second compound 0.0949 µM, first compound 1 µM
[29] = second compound 0.0949 µM, first compound 3.16 µM
[30] = second compound 0.0949 µM, first compound 10 µM
[31] = second compound 0.3 µM, first compound 0.0316 µM
[32] = second compound 0.3 µM, first compound 0.1 µM
[33] = second compound 0.3 µM, first compound 0.316 µM
[34] = second compound 0.3 µM, first compound 1 µM
[35] = second compound 0.3 µM, first compound 3.16 µM
[36] = second compound 0.3 µM, first compound 10 µM
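Further: spheroids exposed to compounds for 7 days before readout.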
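Wherever viability, T/C is given: 100% = DMSO vehicle control viability.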

CC(C)NCC(C(=O)N1CCN(c2ncnc3c2C(C)CC3O)CC1)c1ccc(Cl)cc1 (stereo unspecified) + CCn1c(-c2cc(N3CCN(C)CC3)cnc2C(C)OC)c2c3cc(ccc31)-c1csc(n1)CC(NC(=O)C1CC1C)C(=O)N1CCCC(N1)C(=O)OCC(C)(C)C2
IC50 (second compound 0.000949 µM): < 31.6 nM | IC50 (second compound 0.003 µM): < 31.6 nM | IC50 (second compound 0.00949 µM): < 31.6 nM | IC50 (second compound 0.03 µM): < 31.6 nM | IC50 (second compound 0.0949 µM): < 31.6 nM | IC50 (second compound 0.3 µM): < 31.6 nM | viability, T/C [1]: 28.7% | viability, T/C [2]: 28.3% | viability, T/C [3]: 18.8% | viability, T/C [4]: 20.1% | viability, T/C [5]: 19% | viability, T/C [6]: 10.4% | viability, T/C [7]: 22.7% | viability, T/C [8]: 23.5% | viability, T/C [9]: 16.5% | viability, T/C [10]: 20.5% | viability, T/C [11]: 14.6% | viability, T/C [12]: 8.01% | viability, T/C [13]: 17.7% | viability, T/C [14]: 14.9% | viability, T/C [15]: 15.2% | viability, T/C [16]: 12.3% | viability, T/C [17]: 9.47% | viability, T/C [18]: 5.47% | viability, T/C [19]: 13.1% | viability, T/C [20]: 14% | viability, T/C [21]: 14.2% | viability, T/C [22]: 11.3% | viability, T/C [23]: 8.42% | viability, T/C [24]: 4.92% | viability, T/C [25]: 12.4% | viability, T/C [26]: 13.6% | viability, T/C [27]: 11.9% | viability, T/C [28]: 12.1% | viability, T/C [29]: 5.65% | viability, T/C [30]: 5.14% | viability, T/C [31]: 11.1% | viability, T/C [32]: 14.2% | viability, T/C [33]: 13.5% | viability, T/C [34]: 10% | viability, T/C [35]: 8.91% | viability, T/C [36]: 4.65%

CC(Nc1ccc2c(c1)OCCn1cc(N3C(=O)OCC3C(F)F)nc1-2)C(N)=O (stereo unspecified) + CCn1c(-c2cc(N3CCN(C)CC3)cnc2C(C)OC)c2c3cc(ccc31)-c1csc(n1)CC(NC(=O)C1CC1C)C(=O)N1CCCC(N1)C(=O)OCC(C)(C)C2
IC50 (second compound 0.000949 µM): < 31.6 nM | IC50 (second compound 0.003 µM): < 31.6 nM | IC50 (second compound 0.00949 µM): < 31.6 nM | IC50 (second compound 0.03 µM): < 31.6 nM | IC50 (second compound 0.0949 µM): < 31.6 nM | IC50 (second compound 0.3 µM): < 31.6 nM | viability, T/C [1]: 26% | viability, T/C [2]: 23.3% | viability, T/C [3]: 18.9% | viability, T/C [4]: 21.3% | viability, T/C [5]: 20.5% | viability, T/C [6]: 12.1% | viability, T/C [7]: 19.4% | viability, T/C [8]: 15.9% | viability, T/C [9]: 13.4% | viability, T/C [10]: 14.2% | viability, T/C [11]: 11.7% | viability, T/C [12]: 7.42% | viability, T/C [13]: 14.2% | viability, T/C [14]: 10.3% | viability, T/C [15]: 11.2% | viability, T/C [16]: 9.14% | viability, T/C [17]: 7.89% | viability, T/C [18]: 5.97% | viability, T/C [19]: 12.3% | viability, T/C [20]: 10.6% | viability, T/C [21]: 10.1% | viability, T/C [22]: 8.95% | viability, T/C [23]: 11.8% | viability, T/C [24]: 6.96% | viability, T/C [25]: 11.5% | viability, T/C [26]: 8.85% | viability, T/C [27]: 9.23% | viability, T/C [28]: 8.74% | viability, T/C [29]: 7.5% | viability, T/C [30]: 6.53% | viability, T/C [31]: 11.4% | viability, T/C [32]: 9.97% | viability, T/C [33]: 9.41% | viability, T/C [34]: 6.86% | viability, T/C [35]: 6.29% | viability, T/C [36]: 6.96%

O=C(c1ccc(F)c(F)c1Nc1ccc(I)cc1F)N1CC(O)([C@@H]2CCCCN2)C1 + CCn1c(-c2cc(N3CCN(C)CC3)cnc2C(C)OC)c2c3cc(ccc31)-c1csc(n1)CC(NC(=O)C1CC1C)C(=O)N1CCCC(N1)C(=O)OCC(C)(C)C2
IC50 (second compound 0.000949 µM): < 3.16 nM | IC50 (second compound 0.003 µM): < 3.16 nM | IC50 (second compound 0.00949 µM): < 3.16 nM | IC50 (second compound 0.03 µM): < 3.16 nM | IC50 (second compound 0.0949 µM): < 3.16 nM | IC50 (second compound 0.3 µM): < 3.16 nM | viability, T/C (second compound 0.000949 µM, first compound 0.00316 µM): 26% | viability, T/C (second compound 0.000949 µM, first compound 0.01 µM): 26.8% | viability, T/C [1]: 15.6% | viability, T/C [2]: 19.6% | viability, T/C [3]: 16.4% | viability, T/C [4]: 8.5% | viability, T/C (second compound 0.003 µM, first compound 0.00316 µM): 21.8% | viability, T/C (second compound 0.003 µM, first compound 0.01 µM): 17.2% | viability, T/C [7]: 15.4% | viability, T/C [8]: 14.5% | viability, T/C [9]: 12.3% | viability, T/C [10]: 13.5% | viability, T/C (second compound 0.00949 µM, first compound 0.00316 µM): 15.1% | viability, T/C (second compound 0.00949 µM, first compound 0.01 µM): 11% | viability, T/C [13]: 12.7% | viability, T/C [14]: 12.7% | viability, T/C [15]: 12% | viability, T/C [16]: 8.59% | viability, T/C (second compound 0.03 µM, first compound 0.00316 µM): 13.4% | viability, T/C (second compound 0.03 µM, first compound 0.01 µM): 12.9% | viability, T/C [19]: 12.2% | viability, T/C [20]: 12.7% | viability, T/C [21]: 8.4% | viability, T/C [22]: 10.3% | viability, T/C (second compound 0.0949 µM, first compound 0.00316 µM): 12.6% | viability, T/C (second compound 0.0949 µM, first compound 0.01 µM): 12.5% | viability, T/C [25]: 12.3% | viability, T/C [26]: 12.4% | viability, T/C [27]: 11% | viability, T/C [28]: 10.8% | viability, T/C (second compound 0.3 µM, first compound 0.00316 µM): 12% | viability, T/C (second compound 0.3 µM, first compound 0.01 µM): 11.5% | viability, T/C [31]: 12.7% | viability, T/C [32]: 11.5% | viability, T/C [33]: 8.36% | viability, T/C [34]: 9.92%
